# pIC50: −log10 of the molar value.
# Legend:
# [1] = tested on: A498; assay: Antiproliferative activity against human A498 cells assessed as growth inhibition after 48 hrs by sulforhodamine B assay; type: functional; details: A498, 48 h
# [2] = Antiproliferative activity against human SKOV3 cells assessed as growth inhibition after 48 hrs by sulforhodamine B assay; type: functional; details: SK-OV-3, 48 h; for CC50: read-out: LC50 (the source's name)
# [3] = tested on: CCRF-CEM; assay: Antiproliferative activity against human CCRF-CEM cells assessed as cell growth at 10^-7 M after 48 hrs by sulforhodamine B assay; type: functional; details: read-out: Activity
# [4] = tested on: K562; assay: Antiproliferative activity against human K562 cells assessed as cell growth at 10^-7 M after 48 hrs by sulforhodamine B assay; type: functional; details: K562, 48 h, read-out: Activity
# [5] = Antiproliferative activity against human SF539 cells assessed as cell growth at 10^-7 M after 48 hrs by sulforhodamine B assay; type: functional; details: SF-539, 48 h, read-out: Activity
# [6] = Antiproliferative activity against human UACC62 cells assessed as growth inhibition after 48 hrs by sulforhodamine B assay; type: functional; details: UACC-62, 48 h; for CC50: read-out: LC50 (the source's name)
# [7] = tested on: MDA-MB-435; assay: Antiproliferative activity against human MDA-MB-435 cells assessed as growth inhibition after 48 hrs by sulforhodamine B assay; type: functional; details: MDA-MB-435, 48 h; for CC50: read-out: LC50 (the source's name)
# [8] = tested on: MDA-MB-435; assay: Antiproliferative activity against human MDA-MB-435 cells assessed as cell growth at 10^-7 M after 48 hrs by sulforhodamine B assay; type: functional; details: MDA-MB-435, 48 h, read-out: Activity
# [9] = Antiproliferative activity against human UO31 cells assessed as cell growth at 10^-7 M after 48 hrs by sulforhodamine B assay; type: functional; details: UO-31, 48 h, read-out: Activity
# [10] = Antiproliferative activity against human DU145 cells assessed as cell growth at 10^-7 M after 48 hrs by sulforhodamine B assay; type: functional; details: DU-145, 48 h, read-out: Activity
# [11] = Antiproliferative activity against human SNB19 cells assessed as growth inhibition after 48 hrs by sulforhodamine B assay; type: functional; details: SNB-19, 48 h
# [12] = Antiproliferative activity against human SF539 cells assessed as growth inhibition after 48 hrs by sulforhodamine B assay; type: functional; details: SF-539, 48 h
# [13] = tested on: HT-29; assay: Antiproliferative activity against human HT-29 cells assessed as growth inhibition after 48 hrs by sulforhodamine B assay; type: functional; details: HT-29, 48 h
# [14] = tested on: MDA-MB-231; assay: Antiproliferative activity against human MDA-MB-231 cells assessed as growth inhibition after 48 hrs by sulforhodamine B assay; type: functional; details: MDA-MB-231, 48 h; for CC50: read-out: LC50 (the source's name)
# [15] = Antiproliferative activity against human BT549 cells assessed as growth inhibition after 48 hrs by sulforhodamine B assay; type: functional; details: BT-549, 48 h; for CC50: read-out: LC50 (the source's name)
# [16] = tested on: MDA-MB-468; assay: Antiproliferative activity against human MDA-MB-468 cells assessed as growth inhibition after 48 hrs by sulforhodamine B assay; type: functional; details: MDA-MB-468, 48 h; for CC50: read-out: LC50 (the source's name)
# [17] = target: Serine/threonine-protein kinase B-raf (Homo sapiens, UniProt P15056, V600E); assay: Inhibition of BRAF V600E mutant (unknown origin) measured after 40 mins by scintillation counting
# [18] = tested on: NCI-H322M; assay: Antiproliferative activity against human NCI-H322M cells assessed as cell growth at 10^-8 M after 48 hrs by sulforhodamine B assay; type: functional; details: read-out: Activity
# [19] = tested on: NCI-H460; assay: Antiproliferative activity against human NCI-H460 cells assessed as cell growth at 10^-8 M after 48 hrs by sulforhodamine B assay; type: functional; details: NCI-H460, 48 h, read-out: Activity
# [20] = tested on: U-251; assay: Antiproliferative activity against human U251 cells assessed as cell growth at 10^-8 M after 48 hrs by sulforhodamine B assay; type: functional; details: U-251, 48 h, read-out: Activity
# [21] = tested on: CCRF-CEM; assay: Antiproliferative activity against human CCRF-CEM cells assessed as cell growth at 10^-6 M after 48 hrs by sulforhodamine B assay; type: functional; details: read-out: Activity
# [22] = Antiproliferative activity against human HL-60(TB) cells assessed as cell growth at 10^-6 M after 48 hrs by sulforhodamine B assay; type: functional; details: HL-60, 48 h, read-out: Activity
# [23] = tested on: A549; assay: Antiproliferative activity against human A549/ATCC cells assessed as cell growth at 10^-4 M after 48 hrs by sulforhodamine B assay; type: functional; details: A549, 48 h, read-out: Activity
# [24] = tested on: HT-29; assay: Antiproliferative activity against human HT-29 cells assessed as cell growth at 10^-4 M after 48 hrs by sulforhodamine B assay; type: functional; details: HT-29, 48 h, read-out: Activity
# [25] = tested on: KM12; assay: Antiproliferative activity against human KM12 cells assessed as cell growth at 10^-4 M after 48 hrs by sulforhodamine B assay; type: functional; details: KM12, 48 h, read-out: Activity
# [26] = Antiproliferative activity against human SF539 cells assessed as cell growth at 10^-4 M after 48 hrs by sulforhodamine B assay; type: functional; details: SF-539, 48 h, read-out: Activity
# [27] = tested on: SK-MEL-2; assay: Antiproliferative activity against human SK-MEL-2 cells assessed as cell growth at 10^-8 M after 48 hrs by sulforhodamine B assay; type: functional; details: SK-MEL-2, 48 h, read-out: Activity
# [28] = tested on: SK-MEL-28; assay: Antiproliferative activity against human SK-MEL-28 cells assessed as cell growth at 10^-8 M after 48 hrs by sulforhodamine B assay; type: functional; details: SK-MEL-28, 48 h, read-out: Activity
# [29] = Antiproliferative activity against human OVCAR3 cells assessed as cell growth at 10^-8 M after 48 hrs by sulforhodamine B assay; type: functional; details: OVCAR-3, 48 h, read-out: Activity
# [30] = Antiproliferative activity against human SKOV3 cells assessed as cell growth at 10^-8 M after 48 hrs by sulforhodamine B assay; type: functional; details: SK-OV-3, 48 h, read-out: Activity
# [31] = tested on: 786-0; assay: Antiproliferative activity against human 786-0 cells assessed as cell growth at 10^-8 M after 48 hrs by sulforhodamine B assay; type: functional; details: 786-0, 48 h, read-out: Activity
# [32] = Antiproliferative activity against human UACC62 cells assessed as cell growth at 10^-6 M after 48 hrs by sulforhodamine B assay; type: functional; details: UACC-62, 48 h, read-out: Activity
# [33] = Antiproliferative activity against human DU145 cells assessed as cell growth at 10^-6 M after 48 hrs by sulforhodamine B assay; type: functional; details: DU-145, 48 h, read-out: Activity
# [34] = tested on: MCF7; assay: Antiproliferative activity against human MCF7 cells assessed as cell growth at 10^-6 M after 48 hrs by sulforhodamine B assay; type: functional; details: MCF7, 48 h, read-out: Activity
# Serine/threonine-protein kinase B-raf, sequence (P15056 2-766 V600E limits assumed): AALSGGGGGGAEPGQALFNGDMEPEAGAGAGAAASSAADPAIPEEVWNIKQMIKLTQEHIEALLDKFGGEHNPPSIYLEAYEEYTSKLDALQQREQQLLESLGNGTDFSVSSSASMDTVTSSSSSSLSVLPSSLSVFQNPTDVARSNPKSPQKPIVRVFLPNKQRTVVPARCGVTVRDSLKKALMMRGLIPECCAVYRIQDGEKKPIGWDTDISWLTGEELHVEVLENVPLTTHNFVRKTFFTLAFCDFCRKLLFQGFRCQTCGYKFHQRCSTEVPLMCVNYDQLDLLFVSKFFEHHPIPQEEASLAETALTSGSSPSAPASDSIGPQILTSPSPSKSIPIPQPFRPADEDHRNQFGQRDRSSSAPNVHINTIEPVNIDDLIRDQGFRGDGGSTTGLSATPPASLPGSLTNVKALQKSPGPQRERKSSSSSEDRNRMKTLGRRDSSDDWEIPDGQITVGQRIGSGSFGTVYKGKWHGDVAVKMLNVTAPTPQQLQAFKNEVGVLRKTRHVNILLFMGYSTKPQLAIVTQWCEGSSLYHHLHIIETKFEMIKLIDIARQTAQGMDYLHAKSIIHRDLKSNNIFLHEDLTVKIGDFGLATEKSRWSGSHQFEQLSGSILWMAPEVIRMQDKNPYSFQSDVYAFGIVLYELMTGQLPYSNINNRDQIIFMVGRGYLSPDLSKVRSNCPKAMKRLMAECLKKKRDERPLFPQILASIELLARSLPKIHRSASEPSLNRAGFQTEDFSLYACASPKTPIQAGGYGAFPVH
structure (smiles),measurement,setting,value
CNC(=O)c1cc(Oc2ccc3nc(NC(=O)Nc4ccc(Cl)c(Cl)c4)sc3c2)ccn1,GI50,[1],2.93 µM
same,LC50 (concentration killing 50% of cells),[1],> 100 µM
same,TGI,[1],6.64 µM
same,GI50,[2],2.24 µM
same,TGI,[2],4.09 µM
same,CC50,[2],7.45 µM
same,growth at 0.1 µM,[3],107%
same,growth at 0.1 µM,[4],98%
same,growth at 0.1 µM,[5],100%
same,GI50,[6],2.32 µM
same,TGI,[6],7.76 µM
same,CC50,[6],> 100 µM
same,GI50,[7],2.02 µM
same,TGI,[7],4.62 µM
same,CC50,[7],> 100 µM
same,growth at 0.1 µM,[8],95%
same,growth at 0.1 µM,[9],100%
same,growth at 0.1 µM,[10],101%
same,GI50,[11],1.99 µM
same,LC50 (50% lethal concentration),[11],7.95 µM
same,TGI,[11],3.98 µM
same,GI50,[12],2.17 µM
same,LC50,[12],11.1 µM
same,TGI,[12],4.69 µM
same,GI50,[13],2.16 µM
same,TGI,[13],4.31 µM
same,GI50,[14],2.15 µM
same,TGI,[14],6.43 µM
same,CC50,[14],> 100 µM
same,GI50,[15],4.88 µM
same,TGI,[15],> 100 µM
same,CC50,[15],> 100 µM
same,GI50,[16],1.97 µM
same,TGI,[16],5.09 µM
same,CC50,[16],> 100 µM
same,pIC50,[17],7.02
same,growth at 0.01 µM,[18],90%
same,growth at 0.01 µM,[19],104%
same,growth at 0.01 µM,[20],98%
same,growth at 1 µM,[21],100%
same,growth at 1 µM,[22],105%
same,growth at 100 µM,[23],-41%
same,growth at 100 µM,[24],-49%
same,growth at 100 µM,[25],6%
same,growth at 100 µM,[26],-72%
same,growth at 0.01 µM,[27],115%
same,growth at 0.01 µM,[28],95%
same,growth at 0.01 µM,[29],101%
same,growth at 0.01 µM,[30],110%
same,growth at 0.01 µM,[31],95%
same,growth at 1 µM,[32],85%
same,growth at 1 µM,[33],97%
same,growth at 1 µM,[34],84%
CNC(=O)c1cc(Oc2ccc3nc(NC(=O)c4cc(C(F)(F)F)cc(C(F)(F)F)c4)sc3c2)ccn1,GI50,[1],1.45 µM
same,LC50 (concentration killing 50% of cells),[1],30.9 µM
same,TGI,[1],4.51 µM
same,GI50,[2],2.52 µM
same,TGI,[2],7.98 µM
same,CC50,[2],73.7 µM
same,growth at 0.1 µM,[3],108%
same,growth at 0.1 µM,[4],98%
same,growth at 0.1 µM,[5],91%
same,GI50,[6],2.71 µM
same,TGI,[6],12.1 µM
same,CC50,[6],80.5 µM
same,GI50,[7],3.28 µM
same,TGI,[7],20.4 µM
same,CC50,[7],> 100 µM
same,growth at 0.1 µM,[8],92%
same,growth at 0.1 µM,[9],86%
same,growth at 0.1 µM,[10],105%
same,GI50,[11],3.76 µM
same,LC50 (50% lethal concentration),[11],> 100 µM
same,TGI,[11],22.8 µM
same,GI50,[12],3.14 µM
same,LC50,[12],71.1 µM
same,TGI,[12],14.8 µM
same,GI50,[13],3.86 µM
same,LC50,[13],96.9 µM
same,TGI,[13],16.8 µM
same,GI50,[14],2.88 µM
same,TGI,[14],6.63 µM
same,CC50,[14],39.8 µM
same,GI50,[15],3.05 µM
same,TGI,[15],12.4 µM
same,CC50,[15],> 100 µM
same,GI50,[16],3.18 µM
same,TGI,[16],14.2 µM
same,CC50,[16],> 100 µM
same,pIC50,[17],5.37
same,growth at 0.01 µM,[18],91%
same,growth at 0.01 µM,[19],99%
same,growth at 0.01 µM,[20],98%
same,growth at 1 µM,[21],93%
same,growth at 1 µM,[22],114%
same,growth at 100 µM,[23],-67%
same,growth at 100 µM,[24],-51%
same,growth at 100 µM,[25],-52%
same,growth at 100 µM,[26],-61%
same,growth at 0.01 µM,[27],88%
same,growth at 0.01 µM,[28],97%
same,growth at 0.01 µM,[29],104%
same,growth at 0.01 µM,[30],100%
same,growth at 0.01 µM,[31],98%
same,growth at 1 µM,[32],84%
same,growth at 1 µM,[33],94%
same,growth at 1 µM,[34],87%

# From ChEMBL document CHEMBL3797052 (Eur J Med Chem, 2016)
